Results taken from patent US20120225889A1, “USE OF MACROCYCLIC LACTONE DERIVATIVES FOR THE TREATMENT OF INFLAMMATORY DISORDERS” (PIRAMAL LIFE SCIENCES LIMITED, priority 2010, published 2012).

What was measured:
TNF-α [1] = test: Screening in LPS stimulated THP-1 cells: TNF-α; type: cell-based; conditions: Homo sapiens, 24 h, ELISA
Procedure: (§1) IL-6 (BD Biosciences, USA) production by LPS (Escherchia coli 0127:B8, Sigma, USA) in THP-1 cells (ATCC number: TIB202) was designed as in reference, Journal of Immunology, 151, 5631-5638, (1993), the disclosure of which is incorporated by reference for the teaching of the assay.
(§2) THP-1 cells were cultured in RPMI 1640 culture medium (Gibco BRL, UK) containing 100 U/mL penicillin and […] streptomycin, (100× solution, Sigma, USA) containing 10% FBS (JRH Biosciences, USA). 25,000 cells were seeded per well in 96-well plate (Nunc, USA). The cells were differentiated with PMA (Sigma, USA, prepared as 100 μg/mL stock in RPMI and was diluted to 5 ng/mL). The test compound (prepared as 20 mM stock in DMSO and diluted with DMSO to achieve the following final concentrations in the assay: 100, 10, 1, 0.1, 0.01, 0.001 and 0.0001 μM) or vehicle (0.5% DMSO) were added to the cells and the cells were incubated for 30 min at 37° C. LPS (Sigma, USA, prepared as 1 mg/mL stock in PBS) was added to achieve a final concentration of 1 μg/mL. Plates were incubated at 37° C. for 24 h at 5% CO2. Supernatants were harvested, and assayed for TNF-α and IL-6 by ELISA as described by the manufacturer (BD Biosciences, USA). Percent inhibition of cytokine release compared to the control was calculated. The IC50 values were calculated by a nonlinear regression method.

IL-6 [2] = test: Screening in LPS stimulated THP-1 cells: IL-6; type: cell-based; conditions: Homo sapiens, 24 h, ELISA
Procedure: as §1, §2

TNF-α [3] = test: Cytokine release assay in hPBMCs: TNF-α; type: cell-based; conditions: Homo sapiens; Table 3: PHA-PMA induced hPBMC's, 48 h; read-out: TNF-α IC50
Procedure: (§3) hPBMCs were obtained from healthy donors by centrifugation of heparinized venous blood over Ficoll/Hypaque solution (Histopaque-1077, Sigma, USA). Isolated hPBMCs were suspended in RPMI 1640 culture medium supplemented with 10% FBS and seeded at a density of 50,000 cells/well in a 96-well plate (Nunc, USA). The cells were incubated at 37° C., 5% CO2 for a period of 24 h. These cells were used for the lymphocyte proliferation as well as cytokine release assay.
(§4) The plated cells were treated with different concentrations of the test compound (prepared as mM stock in DMSO and diluted with DMSO to achieve the following final concentrations in the assay: 100, 10, 1, 0.1, 0.01, 0.001, 0.0001, 0.00001 and 0.000001 μM) and incubated for 30 min. The cells were then stimulated with PHA (prepared as 1 mg/mL stock in RPMI 1640 culture medium and used at a final concentration of 5 μg/mL). FK506 was used as a standard. The plates were incubated at 37° C., 5% CO2 for 48 h. The cytokines in the supernatant collected were detected using ELISA kit (BD biosciences, USA). The cytokines evaluated in the assay were TNF-α, IL-2, IL-6, and IFN-γ.

IL-2 = test: Cytokine release assay in hPBMCs: IL-2; type: cell-based; conditions: Homo sapiens; Table 3: PHA-PMA induced hPBMC's, 48 h; read-out: IL-2 IC50
Procedure: as §3, §4

IL-6 [4] = test: Cytokine release assay in hPBMCs: IL-6; type: cell-based; conditions: Homo sapiens; Table 3: PHA-PMA induced hPBMC's, 48 h; read-out: IL-6 IC50
Procedure: as §3, §4

IFN-γ = test: Cytokine release assay in hPBMCs: IFN-γ; type: cell-based; conditions: Homo sapiens; Table 3: PHA-PMA induced hPBMC's, 48 h; read-out: IFN-γ IC50
Procedure: as §3, §4

IL-6 [5] = test: Human monocyte assay (LPS-induced): IL-6; type: cell-based; conditions: LPS stimulated human monocytes, 5 h
Source text: The assay was designed as in reference, Physiological Research, 52, 593-598, (2003), the disclosure of which is incorporated by reference for the teaching of the assay.
The objective of the assay is to determine whether compounds of the present invention—mediated inhibition of LPS-induced cytokines from monocytic THP-1 cell line translates to physiologically relevant human cells. Accordingly, the effect of compounds of the present invention on LPS—induced cytokine production from freshly isolated human monocytes was ascertained.
Peripheral blood was collected from healthy donors into potassium EDTA vacutainer tubes (BD Biosciences, USA). hPBMCs were isolated using density gradient separation (Histopaque-1077; Sigma, USA) and suspended in assay medium which is RPMI culture medium (Sigma, USA) containing 10% heat inactivated FBS (JRH Biosciences, Australia), 100 U/mL penicillin (Sigma, USA) and […] streptomycin (Sigma, USA). Monocytes in the hPBMCs were counted using a Coulter Counter following which the cells were resuspended at 2×10^5 monocytes/mL of assay medium. A cell suspension containing 2×10^4 monocytes was aliquoted per well of a 96-well plate (Nunc, USA). Subsequently, the hPBMCs were incubated for 4-5 h at 37° C., 5% CO2. During the incubation, the monocytes adhered to the bottom of 96-well plate. Following the incubation, the non-adherent lymphocytes were washed and assay medium was added to adherent monocytes. After 48 h of incubation at 37° C., 5% CO2, monocytes were pre-treated with various concentrations of test compound (prepared as 20 mM stock in DMSO; 1 μL of […] concentrated solution of test compound was dissolved in 200 μL cell suspension to achieve a final concentration of 0.03, 0.1, 0.3, 1, 3, 10, 30 and 100 μM) or vehicle (0.5% DMSO) or 10 μM dexamethasone (standard IL-6 and TNF-α inhibitor, Sigma, USA) for 30 min at 37° C., 5% CO2 and stimulated with 1 μg/mL LPS (Escherchia coli 0111:B4, Sigma, USA). The cells were then incubated for 5 h at 37° C., 5% CO2 following which supernatants were collected, stored at −70° C. and were assayed later for IL-6, and TNF-α by ELISA (OptiEIA ELISA sets, BD Biosciences, USA). The IC50 values were calculated by a nonlinear regression method using Graph Pad software (Prism 3.03).

[6] = system: DBA/1J mice with collagen induced arthritis; test: Collagen-induced arthritis in mice; type: in vivo; conditions: compound of example 7 5 mg/kg, s.c., n=10; Enbrel 3 mg/kg, s.c., n=6; vehicle control 15.14+1.0
Procedure: The experiment was designed as in reference, J. Experimental Medicine, 162, 637-646 (1985), the disclosure of which is incorporated by reference for the teaching of the experiment.
Male DBA/1J mice with body weight range of 18-22 g, aged 8-10 weeks were immunized with an emulsion equivalent to 200 μg of type II collagen (Elastin products, USA) in Freund's Complete Adjuvant (Sigma, USA), injected intradermally at the base of the tail. The animals were boosted with 200 μg of freshly prepared typeII collagen emulsion emulsified in Freund's Complete Adjuant (Sigma, USA) on day 21. A group of naïve mice was also maintained alongside. Naïve animals are the animals which are neither immunized for induction of arthritis nor do they receive any treatment. This group is maintained to take care of the normal changes in the paw thickness with age.
From day 23, mice were examined daily once for the signs of rheumatoid arthritis, using the articular index and paw thickness as parameters. Articular index scoring was performed employing the following criteria:
• 0: No redness or swelling • 1: Redness, but no swelling • 2: Redness and swelling of the paw • 3: Redness and severe swelling of the paw Hind limbs: Scale 0-4 • 0: No redness or swelling • 1: Redness and mild swelling of paw • 2: Redness and moderate swelling of paw and/or swelling of at least one of the digits • 3: Redness and moderate/severe swelling of paw, swelling of ankle joint and/or swelling of one or more digits • 4: Redness and severe swelling of paw, digits and ankle joint, with joint stiffness Mice with a minimum hind paw score of 2, of even one paw, were inducted into the study. Mice were randomized into the various study groups, each group having at least eight animals, and were administered the vehicle (0.5% CMC, 10 mL/kg p.o. and s.c. twice daily), the test compound (5 mg/kg, p.o. and s.c., twice daily) and standard compound Enbrel (Wyeth Limited, UK), 3 mg/kg, s.c., once daily. The test compound was administered as a suspension in CMC. The requisite quantity of the compound was accurately weighed and was hand-pulverized using pestle-mortar. After mixing with minimum quantity of Tween 80 necessary to wet the compound, requisite quantity of 0.5% CMC solution was added and the compound was ground with CMC till the uniform suspension was obtained. Standard compound ‘Enbrel’ was used as an aqueous solution. The dosing of the compounds was done for 12 continuous days.
The following parameters were observed and recorded daily, • 1. Body weight • 2. Articular index • 3. Paw thickness of hind limbs only, in mm using a tension free calipers • 4. Any significant observation regarding the condition of the animals.
On 13th day morning, 1 h after the compound treatment, the animals were sacrificed, blood withdrawn, and plasma collected for drug level analyses. Also, the hind limbs of all the animals were preserved for histopathological evaluations.

| Compound | IC50 (TNF-α [1]) [µM] | IC50 (IL-6 [2]) [µM] | IC50 (TNF-α [3]) [µM] | IC50 (IL-2) [µM] | IC50 (IL-6 [4]) [µM] | IC50 (IFN-γ) [µM] | IC50 (IL-6 [5]) [µM] | Histological score of the section of paws [6] |
| --- | --- | --- | --- | --- | --- | --- | --- | --- |
| C/C=C/C(O)C(C)/C=C/C(=NOCC(=O)O)C(C)C(O)C(C)C1OC(=O)/C(OC)=C/C(C)=C/C(C)C(O)C(CC)C(O)C(C)C/C(C)=C/C=C/C1OC (stereo in doubt) [Compound of example 10, ((Z)-((6E,10E)-2-((4E,6E,14E,16Z)-11-Ethyl-10,12-dihydroxy-3,17-dimethoxy-7,9,13,15-tetramethyl-18-oxooxacyclooctadeca-4,6,14,16-tetraen-2-yl)-3,9-dihydroxy-4,8-dimethyldodeca-6,10-dien-5-ylidene)aminooxy)acetic acid] | > 30 | 2.3 | 0.2 | 0.2 | 0.02 | 2 | – | – |
| C/C=C/C(O)C(C)/C=C/C(=NOCC(=O)N1CCN(C)CC1)C(C)C(O)C(C)C1OC(=O)/C(OC)=C/C(C)=C/C(C)C(O)C(CC)C(O)C(C)C/C(C)=C/C=C/C1OC (stereo in doubt) [Compound of example 11, (3Z,5E,13E,15E)-18-((5Z,6E,10E)-3,9-Dihydroxy-4,8-dimethyl-5-(2-(4-methylpiperazin-1-yl)-2-oxoethoxyimino)dodeca-6,10-dien-2-yl)-9-ethyl-8,10-dihydroxy-3,17-dimethoxy-5,7,11,13-tetramethyloxacyclooctadeca-3,5,13,15-tetraen-2-one] | > 30 | 0.3 | 0.05 | 0.05 | 0.01 | 5 | > 10 | – |
| C/C=C/C(O)C(C)/C=C/C(=NOCC(=O)N1CCCCC1)C(C)C(O)C(C)C1OC(=O)/C(OC)=C/C(C)=C/C(C)C(O)C(CC)C(O)C(C)C/C(C)=C/C=C/C1OC (stereo in doubt) [Compound of example 13, (3Z,5E,13E,15E)-18-((5Z,6E,10E)-3,9-Dihydroxy-4,8-dimethyl-5-(2-oxo-2-(piperidin-1-yl)ethoxyimino)dodeca-6,10-dien-2-yl)-9-ethyl-8,10-dihydroxy-3,17-dimethoxy-5,7,11,13-tetramethyloxacyclooctadeca-3,5,13,15-tetraen-2-one] | > 30 | 0.2 | 0.02 | 0.2 | 0.5 | 10 | 1.4 | – |
| C/C=C/C(O)C(C)/C=C/C(=NOCC(=O)N1CCC(N2CCCCC2)CC1)C(C)C(O)C(C)C1OC(=O)/C(OC)=C/C(C)=C/C(C)C(O)C(CC)C(O)C(C)C/C(C)=C/C=C/C1OC (stereo in doubt) [Compound of example 14, (3Z,5E,13E,15E)-18-((5Z,6E,10E)-5-(2-(1,4′-Bipiperidin-1′-yl)-2-oxoethoxyimino)-3,9-dihydroxy-4,8-dimethyldodeca-6,10-dien-2-yl)-9-ethyl-8,10-dihydroxy-3,17-dimethoxy-5,7,11,13-tetramethyloxacyclooctadeca-3,5,13,15-tetraen-2-one] | 18 | 0.13 | 0.02 | 0.005 | 0.01 | 0.02 | 0.15 | – |
| C/C=C/C(O)C(C)/C=C/C(=O)NC(C)C(O)C(C)C1OC(=O)/C(OC)=C/C(C)=C/C(C)C(O)C(CC)C(O)C(C)C/C(C)=C/C=C/C1OC (stereo not drawn) [Compound of example 16, (2E,6E)-N-(4-((4E,6E,14E,16Z)-11-Ethyl-10,12-dihydroxy-3,17-dimethoxy-7,9,13,15-tetramethyl-18-oxooxacyclooctadeca-4,6,14,16-tetraen-2-yl)-3-hydroxypentan-2-yl)-5-hydroxy-4-methylocta-2,6-dienamide] | > 100 | 0.03 | – | – | – | – | – | – |
| Enbrel | – | – | – | – | – | – | – | 5.8+0.95 |
